This note sets out measurements from ChEMBL document CHEMBL3046668, “Phytoene desaturase inhibition by O-(2-phenoxy)ethyl-N-aralkylcarbamates” (J Agric Food Chem, 2003).

Molecules are shown by their SMILES.

This assay deals with 15-cis-phytoene desaturase (Synechococcus elongatus (strain PCC 7942) (Anacystis nidulans R2), UniProt P26294). Kind of assay: Inhibition of Synechococcus PCC 7942 phytoene desaturase expressed in Escherichia coli JM101 using phytoene as substrate after 8 hr by Dixon plot analysis. The following applies: read-out: I50.
Sequence of 15-cis-phytoene desaturase (P26294 whole entry): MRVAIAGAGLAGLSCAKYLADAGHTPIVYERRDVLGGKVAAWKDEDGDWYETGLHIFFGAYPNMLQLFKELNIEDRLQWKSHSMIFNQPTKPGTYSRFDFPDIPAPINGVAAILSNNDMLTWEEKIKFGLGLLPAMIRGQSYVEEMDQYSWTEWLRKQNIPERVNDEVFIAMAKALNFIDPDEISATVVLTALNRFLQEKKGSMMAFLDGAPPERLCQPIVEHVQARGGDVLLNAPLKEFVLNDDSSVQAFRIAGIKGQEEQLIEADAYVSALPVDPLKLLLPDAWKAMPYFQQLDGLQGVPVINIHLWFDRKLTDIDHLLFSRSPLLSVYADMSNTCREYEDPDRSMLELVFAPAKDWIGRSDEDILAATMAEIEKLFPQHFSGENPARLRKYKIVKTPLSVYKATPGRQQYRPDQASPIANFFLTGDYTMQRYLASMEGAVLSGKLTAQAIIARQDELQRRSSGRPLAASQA
`CCC(CSc1cccc(Cl)c1)OC(=O)NCc1ccccc1` (stereo not drawn): the IC50 was 5400 nM. Regarding `CCC(COc1cccc(C(F)(F)F)c1)OC(=O)NCc1ccccc1` (stereo not drawn), the IC50 came to 13 nM.

Regarding `CNc1cnn(-c2cccc(C(F)(F)F)c2)c(=O)c1Cl` [NORFLURAZONE], the IC50 amounted to 29 nM.
